Assay results: ChEMBL document CHEMBL3885861, “Open TG-GATES”

Organism: Rattus norvegicus
Assay: Open TG-GATES - Regimen: Single
Type: toxicity, organism-based, Sprague-Dawley
Parameters: regimen Single, gender Male, age 6 weeks
Settings: in vivo, po, route gavage; for gamma-GTP / ALP / ALT / AST / CRE / Ca / Cl / DBIL / GLC / IP / K / LDH / Na / PL / RALB / TBIL / TC / TG / TP / BUN: tissue Plasma; for Bas / Eos / Fbg / Hb / Ht / Lym / MCH / MCHC / MCV / Mono / PT / Plat / RBC / Ret / WBC / APTT / Neu: tissue Blood; for KIDNEY_L / KIDNEY_R / KIDNEY_TOTAL: tissue Kidney; for LIVER: tissue Liver
[1] = 100 mg/kg, 24 h, dose level Low

COC(=O)C1=C(C)NC(C)=C(C(=O)OC)C1c1ccccc1[N+](=O)[O-] [NIFEDIPINE]
gamma-GTP (0 mg/kg, 24 h, dose level Control): 1 IU/L | TERMINAL_BW (100 mg/kg, 3 h, dose level Low): 201.3 g | Bas (100 mg/kg, 3 h, dose level Low): 0% | Eos (100 mg/kg, 3 h, dose level Low): 1% | Fbg (100 mg/kg, 3 h, dose level Low): 279.6 mg/dL | Hb (100 mg/kg, 3 h, dose level Low): 12.9 g/dL | Ht (100 mg/kg, 3 h, dose level Low): 39.2% | Lym (100 mg/kg, 3 h, dose level Low): 71.8% | MCH (100 mg/kg, 3 h, dose level Low): 20.6 pg | MCHC (100 mg/kg, 3 h, dose level Low): 32.8% | MCV (100 mg/kg, 3 h, dose level Low): 62.6 fL | Mono (100 mg/kg, 3 h, dose level Low): 4.4% | PT (100 mg/kg, 3 h, dose level Low): 14.9 s | Plat (100 mg/kg, 3 h, dose level Low): 123.6 x10_4/uL | RBC (100 mg/kg, 3 h, dose level Low): 625.8 x10_4/ul | Ret (100 mg/kg, 3 h, dose level Low): 9.3% | WBC (100 mg/kg, 3 h, dose level Low): 127.1 x10_2/uL | KIDNEY_L (100 mg/kg, 3 h, dose level Low): 0.9 g | KIDNEY_R (100 mg/kg, 3 h, dose level Low): 0.9 g | KIDNEY_TOTAL (100 mg/kg, 3 h, dose level Low): 1.8 g | LIVER (100 mg/kg, 3 h, dose level Low): 7.9 g | ALP (100 mg/kg, 3 h, dose level Low): 1399 IU/L | ALT (100 mg/kg, 3 h, dose level Low): 44.8 IU/L | AST (100 mg/kg, 3 h, dose level Low): 78.6 IU/L | CRE (100 mg/kg, 3 h, dose level Low): 0.3 mg/dL | Ca (100 mg/kg, 3 h, dose level Low): 11.7 mg/dL | Cl (100 mg/kg, 3 h, dose level Low): 98.2 meq/L | DBIL (100 mg/kg, 3 h, dose level Low): 0.01 mg/dL | GLC (100 mg/kg, 3 h, dose level Low): 227.6 mg/dL | IP (100 mg/kg, 3 h, dose level Low): 9 mg/dL | K (100 mg/kg, 3 h, dose level Low): 4.7 meq/L | LDH (100 mg/kg, 3 h, dose level Low): 89.4 IU/L | Na (100 mg/kg, 3 h, dose level Low): 135.6 meq/L | PL (100 mg/kg, 3 h, dose level Low): 132 mg/dL | RALB (100 mg/kg, 3 h, dose level Low): 2.5 g/dL | TBIL (100 mg/kg, 3 h, dose level Low): 0.042 mg/dL | TC (100 mg/kg, 3 h, dose level Low): 76.2 mg/dL | TG (100 mg/kg, 3 h, dose level Low): 31.6 mg/dL | TP (100 mg/kg, 3 h, dose level Low): 5.3 g/dL | gamma-GTP (100 mg/kg, 3 h, dose level Low): 1.2 IU/L | TERMINAL_BW (100 mg/kg, 6 h, dose level Low): 203.8 g | APTT (100 mg/kg, 6 h, dose level Low): 16.8 s | Bas (100 mg/kg, 6 h, dose level Low): 0% | Eos (100 mg/kg, 6 h, dose level Low): 0.4% | Fbg (100 mg/kg, 6 h, dose level Low): 278.2 mg/dL | Hb (100 mg/kg, 6 h, dose level Low): 12.8 g/dL | Ht (100 mg/kg, 6 h, dose level Low): 39.2% | Lym (100 mg/kg, 6 h, dose level Low): 76.2% | MCH (100 mg/kg, 6 h, dose level Low): 20.2 pg | MCHC (100 mg/kg, 6 h, dose level Low): 32.6% | MCV (100 mg/kg, 6 h, dose level Low): 61.7 fL | Mono (100 mg/kg, 6 h, dose level Low): 3.6% | Neu (100 mg/kg, 6 h, dose level Low): 18.6% | PT (100 mg/kg, 6 h, dose level Low): 15 s | Plat (100 mg/kg, 6 h, dose level Low): 124 x10_4/uL | RBC (100 mg/kg, 6 h, dose level Low): 634.8 x10_4/ul | Ret (100 mg/kg, 6 h, dose level Low): 9.2% | WBC (100 mg/kg, 6 h, dose level Low): 96.4 x10_2/uL | KIDNEY_L (100 mg/kg, 6 h, dose level Low): 0.9 g | KIDNEY_R (100 mg/kg, 6 h, dose level Low): 0.9 g | KIDNEY_TOTAL (100 mg/kg, 6 h, dose level Low): 1.7 g | LIVER (100 mg/kg, 6 h, dose level Low): 7.8 g | ALP (100 mg/kg, 6 h, dose level Low): 1423.2 IU/L | ALT (100 mg/kg, 6 h, dose level Low): 54.6 IU/L | AST (100 mg/kg, 6 h, dose level Low): 82.2 IU/L | BUN (100 mg/kg, 6 h, dose level Low): 32.4 mg/dL | CRE (100 mg/kg, 6 h, dose level Low): 0.2 mg/dL | Ca (100 mg/kg, 6 h, dose level Low): 11.3 mg/dL | Cl (100 mg/kg, 6 h, dose level Low): 98.6 meq/L | DBIL (100 mg/kg, 6 h, dose level Low): 0.01 mg/dL | GLC (100 mg/kg, 6 h, dose level Low): 220.6 mg/dL | IP (100 mg/kg, 6 h, dose level Low): 10.7 mg/dL | K (100 mg/kg, 6 h, dose level Low): 5.2 meq/L | LDH (100 mg/kg, 6 h, dose level Low): 72.8 IU/L | Na (100 mg/kg, 6 h, dose level Low): 135.8 meq/L | PL (100 mg/kg, 6 h, dose level Low): 141.2 mg/dL | RALB (100 mg/kg, 6 h, dose level Low): 2.6 g/dL | TBIL (100 mg/kg, 6 h, dose level Low): 0.042 mg/dL | TC (100 mg/kg, 6 h, dose level Low): 86.4 mg/dL | TG (100 mg/kg, 6 h, dose level Low): 20.8 mg/dL | TP (100 mg/kg, 6 h, dose level Low): 5.5 g/dL | gamma-GTP (100 mg/kg, 6 h, dose level Low): 1.2 IU/L | TERMINAL_BW (100 mg/kg, 9 h, dose level Low): 204.8 g | APTT (100 mg/kg, 9 h, dose level Low): 15.8 s | Bas (100 mg/kg, 9 h, dose level Low): 0% | Eos (100 mg/kg, 9 h, dose level Low): 0.6% | Fbg (100 mg/kg, 9 h, dose level Low): 292.2 mg/dL | Hb (100 mg/kg, 9 h, dose level Low): 12.7 g/dL | Ht (100 mg/kg, 9 h, dose level Low): 38.7% | Lym (100 mg/kg, 9 h, dose level Low): 80.2% | MCH (100 mg/kg, 9 h, dose level Low): 20.8 pg | MCHC (100 mg/kg, 9 h, dose level Low): 32.9% | MCV (100 mg/kg, 9 h, dose level Low): 63.3 fL | Mono (100 mg/kg, 9 h, dose level Low): 2.8% | Neu (100 mg/kg, 9 h, dose level Low): 14.8% | PT (100 mg/kg, 9 h, dose level Low): 14.6 s | Plat (100 mg/kg, 9 h, dose level Low): 127.7 x10_4/uL | RBC (100 mg/kg, 9 h, dose level Low): 610.8 x10_4/ul | Ret (100 mg/kg, 9 h, dose level Low): 9.7% | WBC (100 mg/kg, 9 h, dose level Low): 116.7 x10_2/uL | KIDNEY_L (100 mg/kg, 9 h, dose level Low): 0.9 g | KIDNEY_R (100 mg/kg, 9 h, dose level Low): 0.9 g | KIDNEY_TOTAL (100 mg/kg, 9 h, dose level Low): 1.7 g | LIVER (100 mg/kg, 9 h, dose level Low): 7.4 g | ALP (100 mg/kg, 9 h, dose level Low): 1305.6 IU/L | ALT (100 mg/kg, 9 h, dose level Low): 46.4 IU/L | AST (100 mg/kg, 9 h, dose level Low): 75.6 IU/L | BUN (100 mg/kg, 9 h, dose level Low): 17.8 mg/dL | CRE (100 mg/kg, 9 h, dose level Low): 0.2 mg/dL | Ca (100 mg/kg, 9 h, dose level Low): 10.9 mg/dL | Cl (100 mg/kg, 9 h, dose level Low): 102 meq/L | DBIL (100 mg/kg, 9 h, dose level Low): 0.008 mg/dL | GLC (100 mg/kg, 9 h, dose level Low): 178.6 mg/dL | IP (100 mg/kg, 9 h, dose level Low): 10.8 mg/dL | K (100 mg/kg, 9 h, dose level Low): 4.6 meq/L | LDH (100 mg/kg, 9 h, dose level Low): 76 IU/L | Na (100 mg/kg, 9 h, dose level Low): 138.6 meq/L | PL (100 mg/kg, 9 h, dose level Low): 152 mg/dL | RALB (100 mg/kg, 9 h, dose level Low): 2.6 g/dL | TBIL (100 mg/kg, 9 h, dose level Low): 0.046 mg/dL | TC (100 mg/kg, 9 h, dose level Low): 90.6 mg/dL | TG (100 mg/kg, 9 h, dose level Low): 28.2 mg/dL | TP (100 mg/kg, 9 h, dose level Low): 5.4 g/dL | gamma-GTP (100 mg/kg, 9 h, dose level Low): 1.2 IU/L | TERMINAL_BW [1]: 206.2 g | APTT [1]: 16.5 s | Bas [1]: 0% | Eos [1]: 1% | Fbg [1]: 267.8 mg/dL | Hb [1]: 13 g/dL | Ht [1]: 40.5% | Lym [1]: 65.6% | MCH [1]: 20.8 pg | MCHC [1]: 32.2% | MCV [1]: 64.5 fL | Mono [1]: 3.8% | Neu [1]: 29% | PT [1]: 13.9 s | Plat [1]: 133.1 x10_4/uL | RBC [1]: 629 x10_4/ul | Ret [1]: 8.8% | WBC [1]: 87.9 x10_2/uL | KIDNEY_L [1]: 0.9 g | KIDNEY_R [1]: 0.9 g | KIDNEY_TOTAL [1]: 1.8 g | LIVER [1]: 9.3 g | ALP [1]: 2046.4 IU/L | ALT [1]: 44.4 IU/L | AST [1]: 70.8 IU/L | BUN [1]: 14.6 mg/dL | CRE [1]: 0.2 mg/dL | Ca [1]: 10.6 mg/dL | Cl [1]: 109.4 meq/L | DBIL [1]: 0.016 mg/dL | GLC [1]: 177 mg/dL | IP [1]: 7.4 mg/dL | K [1]: 4.4 meq/L | LDH [1]: 82.6 IU/L | Na [1]: 146 meq/L | PL [1]: 132.8 mg/dL | RALB [1]: 2.6 g/dL | TBIL [1]: 0.03 mg/dL | TC [1]: 68.4 mg/dL | TG [1]: 87.8 mg/dL | TP [1]: 5.5 g/dL | gamma-GTP [1]: 1.2 IU/L | TERMINAL_BW (300 mg/kg, 3 h, dose level Middle): 203.9 g
